The results in this text go back to ChEMBL document CHEMBL6134922 (ACS Med Chem Lett, 2025).

Where only a bound is given, the exact number is not on record here.

The nature of data set [1]: Plasma protein binding in human assessed as unbound fraction at 5 uM incubated for 6 hrs by equilibrium dialysis based HPLC analysis. It counts as ADME, cell-free. (In equilibrium dialysis free small molecules cross a membrane that holds back macromolecules.)
The nature of data set [2]: Plasma protein binding in mouse assessed as unbound fraction at 5 uM incubated for 6 hrs by equilibrium dialysis based HPLC analysis. In kind it is ADME, cell-free.
Data set [3] can be described thus: Unbound fraction in rat brain at 5 uM incubated for 6 hrs by equilibrium dialysis based HPLC analysis. It counts as ADME, tissue-based.
The nature of data set [4]: Unbound fraction in mouse brain at 5 uM incubated for 6 hrs by equilibrium dialysis based HPLC analysis. In kind it is ADME, tissue-based.
Data set [5] can be described thus: Cmax in CD-1 mouse at 10 mg/kg, po measured up to 24 hrs by LC-MS/MS analysis. The conditions noted are these: in vivo. It counts as ADME, organism-based.
Data set [6] is described as follows: AUC in CD-1 mouse at 10 mg/kg, po measured up to 24 hrs by LC-MS/MS analysis. It counts as ADME, organism-based. The conditions noted are these: in vivo.
Data set [7] in a line: Cmax in CD-1 mouse at 10 mg/kg, ip measured up to 24 hrs by LC-MS/MS analysis. In kind it is ADME, organism-based. The conditions noted are these: in vivo.
Data set [8] in a line: AUC in CD-1 mouse at 10 mg/kg, ip measured up to 24 hrs by LC-MS/MS analysis. In kind it is ADME, organism-based. The conditions noted are these: in vivo.
Data set [9] can be described thus: Plasma protein binding in human assessed as percent bound at 5 uM incubated for 6 hrs by equilibrium dialysis based HPLC analysis.
Data set [10] can be described thus: Plasma protein binding in mouse assessed as bound fraction at 5 uM incubated for 6 hrs by equilibrium dialysis based HPLC analysis.

Consider `Cc1cc(C#Cc2cccc(F)c2)cnc1NC(=O)c1cc(NC(=O)OC(C)(C)C)ccc1Cl`, for which the unbound share (fraction unbound) at 6 h, 5 µM in [1] and in [2] was greater than 0.999 each time.
In the case of `CC(C)(C)OC(=O)Nc1ccc(Cl)c(C(=O)Nc2ncc(C#Cc3ccccc3)cc2Cl)c1`, the fraction unbound at 6 h, 5 µM in [2] is greater than 0.999.
`Cc1cc(C#Cc2ccc(F)cc2)cnc1NC(=O)c1cc(NC(=O)OC(C)(C)C)ccc1Cl`: the fraction unbound at 6 h, 5 µM in data set [3] was greater than 0.999; in data set [4], 0.994. Further, the Cmax in data set [5] was 0.252 µM; in [7], 0.888 µM. Also, the values for the AUC at 24 h in [6] and in [8] were 2.27 µM·h and 12.3 µM·h, respectively.
In the case of `Cc1cc(C#Cc2ccccc2)cnc1NC(=O)c1cc(NC(=O)OC(C)(C)C)ccc1Cl`, the “plasma protein binding (% bound)” value in data set [9] stood at 99.5%; in [10], 98.7%.
The corresponding values for `CC(C)(C)OC(=O)Nc1ccc(Cl)c(C(=O)Nc2ncc(C#Cc3ccccc3)cc2F)c1` are 99.8% and 98.9%.

The fraction unbound is the share of the substance not bound to proteins or other matrix. In general, Cmax refers to the highest concentration seen after dosing. As usually defined, the AUC is concentration integrated over time. A lower AUC goes with less exposure.
